Laboratory results taken from patent US6355799B1, “Substituted benzene compounds, process for their preparation, and herbicidal and defoliant compositions containing them” (ISK Americas Incorporated, priority 1997, dated 2002).

Tests used:
Format in all cases: in vivo
[1] = test system: upland rice (Oryza sp., var. Tebonnet, RICE); test: Post-emerge test, crop safety; conditions: post-emerge, 14 days after application, rating scale 0-100
Method in brief: (§1)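 Rating: 0–100 visual injury, 14 DAA. Application: acetone, 187 l/ha, 15–1000 g ai/ha, flat-fan track sprayer with nozzle 40–45 cm above soil or canopy. Post-emerge runs used 0.25% v/v surfactant on 2–3 leaf plants.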

[2] = test system: field corn (Zea mays L., var. Dekalb 535, CORN); test: Post-emerge test, crop safety; conditions: post-emerge, 14 days after application, rating scale 0-100
Method in brief: as §1

[3] = test system: upland rice (Oryza sp., var. Tebonnet, RICE); test: Pre-emerge test, crop safety; conditions: crop damage rating 0-100, 14 days after application
Method in brief: (§2)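 Plants grown in 10 cm pots of sandy loam mix received acetone-dissolved compounds through a moving flat-fan nozzle. Doses ranged from 15 to 1000 g ai/ha. Pre-emerge pots were seeded one day earlier, post-emerge pots 8–21 days earlier. Fourteen days on, each pot was graded 0–100 for damage.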

[4] = test system: field corn (Zea mays L., var. Dekalb 535, CORN); test: Pre-emerge test, crop safety; conditions: crop damage rating 0-100, 14 days after application
Method in brief: as §2

[5] = test system: redroot pigweed (Amaranthus retroflexus, AMARE); test: Pre-emerge test, greenhouse herbicide activity screening; conditions: phytotoxicity rating 0-100, 14 days after application
Method in brief: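 Compounds in acetone were track-sprayed at 187 l/ha, 15–1000 g ai/ha, onto sandy loam pots. Pre-emerge seeds were sown one day before spraying, with surface watering afterwards. Post-emerge plants were at the 2–3 leaf stage and sprayed with 0.25% v/v non-ionic surfactant. Injury was rated 0–100 at 14 days.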

[6] = test system: large crabgrass (Digitaria sanguinalis, DIGSA); test: Post-emerge test, greenhouse herbicide activity screening; conditions: post-emerge, 14 days after application, rating scale 0-100
From the text: (§3) A standard greenhouse herbicide activity screening system was used to evaluate the herbicidal efficacy and crop safety of these test compounds. Seven broadleaf weed species including redroot pigweed (Amaranthus retroflexus, AMARE, velvetleaf (Abutilon theophrasti, ABUTH), sicklepod (Cassia obtusifolia, CASOB), ivyleaf morningglory (Ipomoea hederacea, IPOHE), lambsquarters (Chenopodium album, CHEAL), common ragweed (Ambrosia artemisizfolia L., AMBEL), and cocklebur (Xanthium strumarium, XANST) were used as test species. Four grass weed species including green foxtail (Setaria viridis, SETVI), barnyardgrass (Echinochloa crus-galli, ECHCG), johnsongrass (Sorghum halepense, SORHA), and large crabgrass (Digitaria sanguinalis, DIGSA) were also used. In addition, three crop species, field corn (Zea mays L., var. Dekalb 535, CORN), soybean (Glycine max L., var. Pella 86, SOY), and is upland rice (Oryza sp., var. Tebonnet, RICE) were included.
(§4) All plants were grown in 10 cm square plastic pots which were filled with a sandy loam soil mix. For pre-emerge tests, seeds were planted one day prior to application of the test compounds. For post-emerge tests, seeds were planted 8-21 days prior to the test to allow emergence and good foliage development prior to application of the test substances. At the time of the post-emerge application, plants of all species were usually at the 2-3 leaf stage of development.
(§5) All test compounds Were dissolved in acetone and applied to the test units in a volume of 187 l /ha. Test materials were applied at rates ranging from 15 g ai/ha to 1000 g ai/ha using a track sprayer equipped with a TJ8001E even flow flat fan spray nozzle. Plants were arranged on a shelf so that the top of the canopy (post-emerge) or top of the soil surface (pre-emerge) was 40-45 cm below the nozzle. Pressurized air was used to force the test solution through the nozzle as it was mechanically advanced (via electrically driven chain drive) over the top of all test plants/pots. This application simulates a typical commercial field herbicide application.
(§6) In the post-emerge test, a commercial non-ionic surfactant was also included (0.25% v/v) to enhance wetting of the leaf surfaces of target plants. Immediately after application, test units of the pre-emerge applications were watered at the soil surface to incorporate the test materials. Subsequently, these test units were bottom-watered. Post-emerge test units were always bottom-watered.
(§7) At 14 days after application of the test materials, phytotoxicity ratings were recorded. A rating scale of 0-100 was used as previously described in Research Methods in Weed Science, 2nd edition, B. Truelove, Ed., Southern Weed Science Society, Auburn University, Auburn, Ala. 1977. Briefly, “0” corresponds to no damage and “100” corresponds to complete death of all plants in the test unit. This scale was used both to determine efficacy against weed species and damage to crop species. Herbicide activity data for various compounds of this invention, which are shown by compound No. in Tables 1-8, are shown in Tables 11 and 12.

[7] = test system: lambsquarters (Chenopodium album, CHEAL); test: as above; conditions: post-emerge, 14 days after application, rating scale 0-100
From the text: as §3, §4, §5, §6, §7

[8] = test system: ivyleaf morningglory (Ipomoea hederacea, IPOHE); test: as above; conditions: post-emerge, 14 days after application, rating scale 0-100
From the text: as §3, §4, §5, §6, §7

[9] = test system: sicklepod (Cassia obtusifolia, CASOB); test: as above; conditions: post-emerge, 14 days after application, rating scale 0-100
From the text: as §3, §4, §5, §6, §7

[10] = test system: barnyardgrass (Echinochloa crus-galli, ECHCG); test: as above; conditions: post-emerge, 14 days after application, rating scale 0-100
From the text: as §3, §4, §5, §6, §7

[11] = test system: redroot pigweed (Amaranthus retroflexus, AMARE); test: as above; conditions: post-emerge, 14 days after application
From the text: as §3, §4, §5, §6, §7

[12] = test system: green foxtail (Setaria viridis, SETVI); test: as above; conditions: post-emerge, 14 days after application, rating scale 0-100
From the text: as §3, §4, §5, §6, §7

[13] = test system: velvetleaf (Abutilon theophrasti, ABUTH); test: as above; conditions: post-emerge, 14 days after application, rating scale 0-100
From the text: as §3, §4, §5, §6, §7

[14] = test system: large crabgrass (Digitaria sanguinalis, DIGSA); test: Pre-emerge test, greenhouse herbicide activity screening; conditions: phytotoxicity rating 0-100, 14 days after application
From the text: as §3, §4, §5, §6, §7

[15] = test system: lambsquarters (Chenopodium album, CHEAL); test: as above; conditions: phytotoxicity rating 0-100, 14 days after application
From the text: as §3, §4, §5, §6, §7

[16] = test system: ivyleaf morningglory (Ipomoea hederacea, IPOHE); test: as above; conditions: phytotoxicity rating 0-100, 14 days after application
From the text: as §3, §4, §5, §6, §7

[17] = test system: sicklepod (Cassia obtusifolia, CASOB); test: as above; conditions: phytotoxicity rating 0-100, 14 days after application
From the text: as §3, §4, §5, §6, §7

[18] = test system: barnyardgrass (Echinochloa crus-galli, ECHCG); test: as above; conditions: phytotoxicity rating 0-100, 14 days after application
From the text: as §3, §4, §5, §6, §7

[19] = test system: green foxtail (Setaria viridis, SETVI); test: as above; conditions: phytotoxicity rating 0-100, 14 days after application
From the text: as §3, §4, §5, §6, §7

[20] = test system: velvetleaf (Abutilon theophrasti, ABUTH); test: as above; conditions: phytotoxicity rating 0-100, 14 days after application
From the text: as §3, §4, §5, §6, §7

COc1c(Cl)cc(F)c(-n2c(=O)cc(C(F)(F)F)n(C)c2=O)c1NC(=O)OCc1cc(F)ccc1F [4-39]
phytotoxicity rating RICE (crop damage) ([1]; 63 g ai/ha): 60 | phytotoxicity rating RICE (crop damage) ([1]; 250 g ai/ha): 60 | phytotoxicity rating CORN (crop damage) ([2]; 63 g ai/ha): 70 | phytotoxicity rating CORN (crop damage) ([2]; 250 g ai/ha): 100 | Pre-emerge Herbicidal Activity RICE ([3]; 63 g ai/ha): 80 | Pre-emerge Herbicidal Activity RICE ([3]; 250 g ai/ha): 80 | Pre-emerge Herbicidal Activity CORN ([4]; 63 g ai/ha): 70 | Pre-emerge Herbicidal Activity CORN ([4]; 250 g ai/ha): 90 | Pre-emerge Herbicidal Activity AMARE ([5]; 63 g ai/ha): 100 | Pre-emerge Herbicidal Activity AMARE ([5]; 250 g ai/ha): 100 | phytotoxicity rating DIGSA ([6]; 63 g ai/ha): 50 | phytotoxicity rating DIGSA ([6]; 250 g ai/ha): 80 | phytotoxicity rating CHEAL ([7]; 63 g ai/ha): 100 | phytotoxicity rating CHEAL ([7]; 250 g ai/ha): 100 | phytotoxicity rating IPOHE ([8]; 63 g ai/ha): 100 | phytotoxicity rating IPOHE ([8]; 250 g ai/ha): 100 | phytotoxicity rating CASOB ([9]; 63 g ai/ha): 100 | phytotoxicity rating CASOB ([9]; 250 g ai/ha): 100 | phytotoxicity rating ECHCG ([10]; 63 g ai/ha): 60 | phytotoxicity rating ECHCG ([10]; 250 g ai/ha): 90 | phytotoxicity rating AMARE ([11]; 63 g ai/ha, rating scale 0-100 (0 no damage, 100 complete death)): 100 | phytotoxicity rating AMARE ([11]; 250 g ai/ha, rating scale 0-100): 100 | phytotoxicity rating SETVI ([12]; 63 g ai/ha): 80 | phytotoxicity rating SETVI ([12]; 250 g ai/ha): 90 | phytotoxicity rating ABUTH ([13]; 63 g ai/ha): 100 | phytotoxicity rating ABUTH ([13]; 250 g ai/ha): 100 | Pre-emerge Herbicidal Activity DIGSA ([14]; 63 g ai/ha): 100 | Pre-emerge Herbicidal Activity DIGSA ([14]; 250 g ai/ha): 100 | Pre-emerge Herbicidal Activity CHEAL ([15]; 63 g ai/ha): 100 | Pre-emerge Herbicidal Activity CHEAL ([15]; 250 g ai/ha): 100 | Pre-emerge Herbicidal Activity IPOHE ([16]; 63 g ai/ha): 80 | Pre-emerge Herbicidal Activity IPOHE ([16]; 250 g ai/ha): 100 | Pre-emerge Herbicidal Activity CASOB ([17]; 63 g ai/ha): 30 | Pre-emerge Herbicidal Activity CASOB ([17]; 250 g ai/ha): 90 | Pre-emerge Herbicidal Activity ECHCG ([18]; 63 g ai/ha): 60 | Pre-emerge Herbicidal Activity ECHCG ([18]; 250 g ai/ha): 80 | Pre-emerge Herbicidal Activity SETVI ([19]; 63 g ai/ha): 100 | Pre-emerge Herbicidal Activity SETVI ([19]; 250 g ai/ha): 100 | Pre-emerge Herbicidal Activity ABUTH ([20]; 63 g ai/ha): 100 | Pre-emerge Herbicidal Activity ABUTH ([20]; 250 g ai/ha): 100
